Assay results: patent publication US10471092B2, “Combination of hyaluronic acid and macrogol and pharmaceutical compositions containing it” (APHARM S.r.l., priority 2015, dated 2019)
“And” between values parts separate entries of the source, which are not always exact repeats. Identical values can stand only once.

Columns and labels:
Type in all cases: in vivo, rat
rats [1] = assay: Colon propulsion, glass bead expulsion from distal colon (Raffa et al.; Lopez)
From the text: (§1) Intestinal transit, colon peristalsis and the amount of stool expelled have been evaluated on rats, after the administration of different individual doses of macrogol and sodium hyaluronate and of the combination of the invention.
In this case all the values are significant with respect to the same treatment without water. […] Analogously to what observed in tab. […] The reduction of expulsion time results to be dose dependent, being in all the cases clearly evident and statistically significant with respect to the PEG+water dose. […] Propulsion of distal colon has been measured according to the method of Raffa et al. (Life Sci., 41: 2229-34, 1987) and of Lopez (Dig. Dis. Sci., 29:551, 1984). 30 min after the administration of the preparations, a 5 mm diameter glass bead has been inserted in the distal colon of each rat at 3 cm from the anus. The parameter taken as the reference was the time required by each rat to expel the bead. The lower the expulsion time, the highest the colon propulsion.

rats [2] = assay: Evaluation of the amount of stool (number of expelled pellets)
Experimental: as §1
In Table 3 it is possible to observe an increase in the number of expelled pellets from the rat after the PEG (365-1460 mg/kg p.o. without water and […] p.o. with water) and 20-50 mg/kg hyaluronate treatment in both conditions. […] A greater number of expelled pellets have been induced by the combination of 730 mg/kg p.o. PEG with 30 and 50 mg/kg p.o. sodium hyaluronate+water. […] By administering a dose of 487 mg/kg PEG+50 mg/kg p.o. sodium hyaluronate+water, the number of expelled pellets is equal to that one that can be observed with 730 mg/kg p.o. PEG and 30 mg/kg p.o. sodium hyaluronate. […] The stool expulsion has been monitored for each rat, starting from 1 h after the administration of the preparations (Martinez e Taché, Brain Res. 893: 29-35, 2001).

rats [3] = assay: Intestinal transit, activated carbon feed (method of Schulz et al); conditions: for % of increase of intestinal transit with respect to: rats
Experimental: as §1
On the other hand, such a parameter is increased with a dose-response behavior at the same doses by adding 0.3 ml of water administered per os. as well. In fact, the percentage increase values range from +10% at the 365 mg/kg p.o. dose of PEG to +23% at the 1560 mg/kg p.o. dose. […] Interesting results, under the same experimental conditions, have been obtained with the combination of PEG and sodium hyaluronate.
The experiment has been carried out following the method of Schulz et al (NS Arch. Pharmacol. 308:255-260, 1979) by using an activated carbon feed. 1.5 ml of a 20% (w/v) activated carbon suspension in a 5% (w/v) gum arabic solution has been administered by gavage to 24 hrs starved rats with free access to water. The rats have been sacrificed 10 min after receiving the activated carbon feed and their intestine has been completely removed. The transit in the small intestine has been calculated for each rat as the ratio between the traveled distance of the activated carbon feed and the total length of the intestine itself. Data are expressed as the percentage of transit in treated rats with respect to controls that have been considered as 100. Administration of the preparations occurred 30 min before sacrificing the animal.

[4] = 20 mg/kg p.o. IALURONATE, no water
[5] = 30 mg/kg p.o. IALURONATE, no water
[6] = 50 mg/kg p.o. IALURONATE, no water

sodium hyaluronate [IALURONATE]
Bead Expulsion time (rats [1]; 20 mg/kg p.o. IALURONATE + Water 0.3 ml, rats): 129 ± 14 s
Bead Expulsion time (rats [1]; 20 mg/kg p.o. IALURONATE, no water, rats): 195 ± 12 s
Bead Expulsion time (rats [1]; 30 mg/kg p.o. IALURONATE + Water 0.3 ml, rats): 120 ± 11 s
Bead Expulsion time (rats [1]; 30 mg/kg p.o. IALURONATE, no water, rats): 191 ± 16 s
Bead Expulsion time (rats [1]; 50 mg/kg p.o. IALURONATE + Water 0.3 ml, rats): 114 ± 15 s
Bead Expulsion time (rats [1]; 50 mg/kg p.o. IALURONATE, no water, rats): 188 ± 21 s
expulsion time of the bead (rats [1]; sodium hyaluronate 20-50 mg/kg p.o. by gavage, no water, rats): does not modify
expulsion time of the bead (rats [1]; sodium hyaluronate 20-50 mg/kg p.o., rat intakes water (0.2 ml)): the effect is very evident
No of pellets after 60 min (rats [2]; 20 mg/kg p.o. IALURONATE + Water 2 ml): 2
No of pellets after 60 min (rats [2]; [4]): 0
No of pellets after 60 min (rats [2]; 30 mg/kg p.o. IALURONATE + Water 2 ml): 2
No of pellets after 60 min (rats [2]; [5]): 1
No of pellets after 60 min (rats [2]; 50 mg/kg p.o. IALURONATE + Water 2 ml): 3
No of pellets after 60 min (rats [2]; [6]): 1
% of increase of intestinal transit with respect to (rats [3]; 20 mg/kg p.o. IALURONATE + Water 0.3 ml): 17.0%
% of increase of intestinal transit with respect to (rats [3]; [4]): 0%
% of increase of intestinal transit with respect to (rats [3]; 30 mg/kg p.o. IALURONATE + Water 0.3 ml): 19.6%
% of increase of intestinal transit with respect to (rats [3]; [5]): 3.8%
% of increase of intestinal transit with respect to (rats [3]; 50 mg/kg p.o. IALURONATE + Water 0.3 ml): 20.3%
% of increase of intestinal transit with respect to (rats [3]; [6]): 4.2%
intestinal transit (rats [3]; sodium hyaluronate 20-50 mg/kg p.o., without simultaneous intake of water, rat): does not induce an increase

polyethylene glycol [PEG]
Bead Expulsion time (rats [1]; 365 mg/kg p.o. PEG + Water 0.3 ml, rats): 153 ± 13 s
Bead Expulsion time (rats [1]; 365 mg/kg p.o. PEG, no water, rats): 202 ± 11 s
Bead Expulsion time (rats [1]; 487 mg/kg p.o. PEG + Water 0.3 ml, rats): 135 ± 19 s
Bead Expulsion time (rats [1]; 730 mg/kg p.o. PEG + Water 0.3 ml, rats): 128 ± 16 s
Bead Expulsion time (rats [1]; 730 mg/kg p.o. PEG, no water, rats): 181 ± 9 s
Bead Expulsion time (rats [1]; 973 mg/kg p.o. PEG + Water 0.3 ml, rats): 116 ± 18 s
Bead Expulsion time (rats [1]; 973 mg/kg p.o. PEG, no water, rats): 185 ± 12 s
Bead Expulsion time (rats [1]; 1460 mg/kg p.o. PEG, no water, rats): 173 ± 15 s
Bead Expulsion time (rats [1]; 1560 mg/kg p.o. PEG + Water 0.3 ml, rats): 93 ± 9 s
colon propulsion activity (rats [1]; PEG 365 to 1560 mg/kg p.o. with simultaneous intake of water, vs same treatment without water, rats): statistically significant effect
colon propulsion activity (rats [1]; PEG alone, without simultaneous administration of water by gavage, rats): does not modify
No of pellets after 60 min (rats [2]; 365 mg/kg p.o. PEG + Water 2 ml): 0
No of pellets after 60 min (rats [2]; 365 mg/kg p.o. PEG, no water): 0
No of pellets after 60 min (rats [2]; 487 mg/kg p.o. PEG + Water 2 ml): 2
No of pellets after 60 min (rats [2]; 730 mg/kg p.o. PEG + Water 2 ml): 3
No of pellets after 60 min (rats [2]; 730 mg/kg p.o. PEG, no water): 0
No of pellets after 60 min (rats [2]; 973 mg/kg p.o. PEG + Water 2 ml): 3
No of pellets after 60 min (rats [2]; 973 mg/kg p.o. PEG, no water): 1
No of pellets after 60 min (rats [2]; 1460 mg/kg p.o. PEG, no water): 1
No of pellets after 60 min (rats [2]; 1560 mg/kg p.o. PEG + Water 2 ml): 3
% of increase of intestinal transit with respect to (rats [3]; 365 mg/kg p.o. PEG + Water 0.3 ml): 10% and 10.8%
% of increase of intestinal transit with respect to (rats [3]; 365 mg/kg p.o. PEG, no water): 9.4%
% of increase of intestinal transit with respect to (rats [3]; 487 mg/kg p.o. PEG + Water 0.3 ml): 11.5%
% of increase of intestinal transit with respect to (rats [3]; 730 mg/kg p.o. PEG + Water 0.3 ml): 15.3%
% of increase of intestinal transit with respect to (rats [3]; 730 mg/kg p.o. PEG, no water): 6.7%
% of increase of intestinal transit with respect to (rats [3]; 973 mg/kg p.o. PEG + Water 0.3 ml): 18.6%
% of increase of intestinal transit with respect to (rats [3]; 973 mg/kg p.o. PEG, no water): 8.8%
% of increase of intestinal transit with respect to (rats [3]; 1460 mg/kg p.o. PEG, no water): 8.6%
% of increase of intestinal transit with respect to (rats [3]; 1560 mg/kg p.o. PEG + Water 0.3 ml): 23% and 23.2%
intestinal motility (rats [3]; PEG by gavage, 365 to 1460 mg/kg p.o., without water, rat): does not induce a significant increase
